Laboratory results as given in the NIST ThermoML archive (doi:10.1016/j.jct.2012.11.011).

Assay: xn = mol fraction of the nth substance listed
Conditions: Liquid, Vibrating tube method

CCCCCCCCCC [decane] + COC(=O)OC
mass density [kg/m3]
Conditions | x2 = 0.0438 | x2 = 0.11 | x2 = 0.2348 | x2 = 0.3516 | x2 = 0.3944 | x2 = 0.557 | x2 = 0.8035 | x2 = 0.95
288.15 K, 100 kPa | 739 | 749 | 769.2 | 792 | 801.9 | 844.5 | 944.4 | 1034.2
288.15 K, 5000 kPa | 742.7 | 753.6 | 773.1 | 796 | 805.9 | 848.7 | 948.8 | 1038.5
288.15 K, 10000 kPa | 746.2 | 757.2 | 776.8 | 799.9 | 809.8 | 852.6 | 953.1 | 1042.8
288.15 K, 20000 kPa | 752.7 | 763.9 | 783.7 | 807 | 817 | 858.8 | 963.1 | 1050.8
288.15 K, 30000 kPa | 758.8 | 769.8 | 790 | 813.4 | 823.5 | 865 | 971.2 | 1058.2
288.15 K, 40000 kPa | 764.3 | 775.8 | 796.1 | 819.7 | 829.3 | 872.6 | 977.8 | 1065.3
298.15 K, 100 kPa | 731.3 | 741.9 | 760.8 | 783.2 | 793.3 | 831.4 | 932.1 | 1021.4
298.15 K, 5000 kPa | 735.6 | 746.2 | 765.5 | 787.9 | 798 | 836.7 | 937.6 | 1026.5
298.15 K, 10000 kPa | 739 | 749.7 | 769 | 791.4 | 801.8 | 840.5 | 942.1 | 1030.7
298.15 K, 20000 kPa | 745.9 | 756.6 | 776.2 | 799 | 809.4 | 848.3 | 951.1 | 1039
298.15 K, 30000 kPa | 752.2 | 763.1 | 782.9 | 805.9 | 816.6 | 856.1 | 959.2 | 1047
298.15 K, 40000 kPa | 758.1 | 769 | 789 | 812.2 | 823 | 863.2 | 966.8 | 1054.4
308.15 K, 100 kPa | 723.6 | 733.9 | 752.5 | 774.3 | 783.8 | 820.2 | 920.7 | 1008.8
308.15 K, 5000 kPa | 727.7 | 738.2 | 756.9 | 778.9 | 788.5 | 825.6 | 926.3 | 1013.8
308.15 K, 10000 kPa | 731.7 | 742.2 | 761 | 783.2 | 792.8 | 830.8 | 931.6 | 1018.5
308.15 K, 20000 kPa | 739 | 749.7 | 768.6 | 790.9 | 801.1 | 840 | 941.1 | 1027.6
308.15 K, 30000 kPa | 745.6 | 756.4 | 775.6 | 798.3 | 808.4 | 848.4 | 949.7 | 1035.9
308.15 K, 40000 kPa | 751.8 | 762.6 | 782.1 | 804.9 | 815.3 | 856.1 | 957.8 | 1043.7

CCOC(=O)OCC [diethyl carbonate] + CCCCCCCC
mass density [kg/m3]
Conditions | x1 = 0.0522 | x1 = 0.1042 | x1 = 0.1671 | x1 = 0.322 | x1 = 0.3657 | x1 = 0.5075 | x1 = 0.6922 | x1 = 0.8002 | x1 = 0.9206 | x1 = 0.9459
288.15 K, 100 kPa | 716 | 726.1 | 738.6 | 772.6 | 784 | 820.5 | 874.2 | 908.5 | 951 | 959.8
288.15 K, 5000 kPa | 720.1 | 730.4 | 742.8 | 778.1 | 788.4 | 824.9 | 879.4 | 912.8 | 954.9 | 964.3
288.15 K, 10000 kPa | 723.9 | 734.4 | 746.8 | 782.1 | 792.6 | 829 | 883.7 | 917 | 958.8 | 968.6
288.15 K, 20000 kPa | 731.2 | 741.6 | 754.1 | 789.6 | 800.1 | 836.8 | 891.6 | 925 | 966.5 | 976.3
288.15 K, 30000 kPa | 737.8 | 748.2 | 760.7 | 796.5 | 807.1 | 843.9 | 898.5 | 932.1 | 973.8 | 983.3
288.15 K, 40000 kPa | 744 | 754.5 | 767.2 | 803.1 | 813.7 | 850.5 | 907.6 | 939 | 980.7 | 990.3
298.15 K, 100 kPa | 707.7 | 717.7 | 729.9 | 764.5 | 774.7 | 810.7 | 864.7 | 897.7 | 939.2 | 949.3
298.15 K, 5000 kPa | 712.5 | 722.5 | 734.7 | 769.5 | 779.7 | 815.8 | 869.8 | 902.8 | 944.2 | 953.8
298.15 K, 10000 kPa | 716.3 | 726.3 | 738.5 | 773.4 | 783.7 | 819.8 | 873.8 | 906.9 | 948.2 | 957.7
298.15 K, 20000 kPa | 723.9 | 734 | 746.3 | 781.4 | 791.8 | 828.1 | 882 | 915.2 | 956.4 | 965.9
298.15 K, 30000 kPa | 730.8 | 741 | 753.4 | 788.8 | 799.1 | 835.6 | 889.8 | 922.8 | 964 | 973.6
298.15 K, 40000 kPa | 737.2 | 747.4 | 759.9 | 795.5 | 805.9 | 842.4 | 896.9 | 929.9 | 971.1 | 980.7
308.15 K, 100 kPa | 699.6 | 709.3 | 721.2 | 755.4 | 765.4 | 801 | 854.3 | 887.1 | 928 | 937.6
308.15 K, 5000 kPa | 704.2 | 714 | 725.9 | 760.4 | 770.4 | 805.9 | 859.3 | 892 | 932.9 | 942.6
308.15 K, 10000 kPa | 708.7 | 718.5 | 730.5 | 765.1 | 775.1 | 810.8 | 864.1 | 896.8 | 937.6 | 947.3
308.15 K, 20000 kPa | 716.6 | 726.5 | 738.7 | 773.3 | 783.6 | 819.4 | 873 | 905.6 | 946.3 | 956
308.15 K, 30000 kPa | 723.8 | 733.9 | 746.2 | 781.1 | 791.2 | 827.2 | 880.9 | 913.7 | 954.3 | 964.1
308.15 K, 40000 kPa | 730.5 | 740.7 | 753 | 788 | 798.3 | 834.6 | 888.3 | 921.2 | 961.9 | 971.5
